Assay results from patent US5942508A, “Method for solubilizing pyridonecarboxylic acid solubilizer thereof and aqueous solution containing solubilized pyridonecarboxylic acid” (Senju Pharmaceutical Co., Ltd., priority 1997, dated 1999).
Converted amounts (≈) assume the structure as drawn.

Legend:
[1] = Effect of arylcarboxylic acid on solubility of pyridonecarboxylic acid - 1 (Table 1); assay type: physicochemical; conditions: 0.1% aqueous sodium dihydrogenphosphate, 25° C., one week
Description: Experimental Example 1: Effect of arylcarboxylic acid on solubility of pyridonecarboxylic acid - 1
(§1) To a 0.1% aqueous sodium dihydrogenphosphate solution (100 ml) containing pranoprofen, ibuprofen or bromfenac was added norfloxacin or enoxacin in excess, and the pH thereof was adjusted to 7-8 with hydrochloric acid or sodium hydroxide. The mixture was shaken for one week at 25° C. and filtered through a 0.45 μm membrane filter, which was followed by the determination of a norfloxacin or enoxacin content by high performance liquid chromatography.

[2] = Effect of arylcarboxylic acid on solubility of pyridonecarboxylic acid - 2 (Table 2); assay type: physicochemical; conditions: 0.1% aqueous sodium dihydrogenphosphate, 25° C., one week
Description: Experimental Example 2: Effect of arylcarboxylic acid on solubility of pyridonecarboxylic acid - 2
as §1, with “2-naphthoic acid, 2-naphthylacetic acid” for “pranoprofen, ibuprofen”, “2-naphthoxyacetic acid” for “bromfenac”, “8-9” for “7-8”

[3] = Increase of solubility by addition of arylcarboxylic acid (Tables 1 to 3); assay type: physicochemical; conditions: about, addition of at least one arylcarboxylic acid (pranoprofen, ibuprofen, diclofenac, bromfenac, 2-naphthoic, 2-naphthylacetic, 2-naphthoxyacetic acid)
Description: as §1
as §1, with “2-naphthoic acid, 2-naphthylacetic acid” for “pranoprofen, ibuprofen”, “2-naphthoxyacetic acid” for “bromfenac”, “8-9” for “7-8”
as §1, with “ibuprofen, diclofenac, bromfenac, 2-naphthoic acid, 2-naphthylacetic acid” for “ibuprofen”, “2-naphthoxyacetic acid” for “bromfenac”, “lomefloxacin” for “norfloxacin or enoxacin”, “8-9” for “7-8”

[4] = Effect of arylcarboxylic acid on solubility of pyridonecarboxylic acid - 3 (Table 3); assay type: physicochemical; conditions: 0.1% aqueous sodium dihydrogenphosphate, 25° C., one week
Description: Experimental Example 3: Effect of arylcarboxylic acid on solubility of pyridonecarboxylic acid - 3
as §1, with “ibuprofen, diclofenac, bromfenac, 2-naphthoic acid, 2-naphthylacetic acid” for “ibuprofen”, “2-naphthoxyacetic acid” for “bromfenac”, “lomefloxacin” for “norfloxacin or enoxacin”, “8-9” for “7-8”

[5] = pH 7, bromfenac added, pH 7, 0.1% aqueous sodium dihydrogenphosphate
[6] = pH 7, ibuprofen added, pH 7, 0.1% aqueous sodium dihydrogenphosphate
[7] = pH 7, pranoprofen added, pH 7, 0.1% aqueous sodium dihydrogenphosphate
[8] = pH 7, without addition, pH 7, 0.1% aqueous sodium dihydrogenphosphate
[9] = pH 8, bromfenac added, pH 8, 0.1% aqueous sodium dihydrogenphosphate
[10] = pH 8, ibuprofen added, pH 8, 0.1% aqueous sodium dihydrogenphosphate
[11] = pH 8, pranoprofen added, pH 8, 0.1% aqueous sodium dihydrogenphosphate
[12] = pH 8, without addition, pH 8, 0.1% aqueous sodium dihydrogenphosphate
[13] = pH 8, 2-naphthoic acid added, pH 8, 0.1% aqueous sodium dihydrogenphosphate
[14] = pH 8, 2-naphthoxyacetic acid added, pH 8, 0.1% aqueous sodium dihydrogenphosphate
[15] = pH 8, 2-naphthylacetic acid added, pH 8, 0.1% aqueous sodium dihydrogenphosphate
[16] = pH 9, 2-naphthoic acid added, pH 9, 0.1% aqueous sodium dihydrogenphosphate
[17] = pH 9, 2-naphthoxyacetic acid added, pH 9, 0.1% aqueous sodium dihydrogenphosphate
[18] = pH 9, 2-naphthylacetic acid added, pH 9, 0.1% aqueous sodium dihydrogenphosphate
[19] = pH 9, without addition, pH 9, 0.1% aqueous sodium dihydrogenphosphate

solubility thermodynamic at 168 h [1, 5] [µg/mL]	solubility thermodynamic at 168 h [1, 6] [µg/mL]	solubility thermodynamic at 168 h [1, 7] [µg/mL]	solubility thermodynamic at 168 h [1, 8] [µg/mL]	solubility thermodynamic at 168 h [1, 9] [µg/mL]	solubility thermodynamic at 168 h [1, 10] [µg/mL]	solubility thermodynamic at 168 h [1, 11] [µg/mL]	solubility thermodynamic at 168 h [1, 12] [µg/mL]	solubility thermodynamic at 168 h [2, 13] [µg/mL]	solubility thermodynamic at 168 h [2, 14] [µg/mL]	solubility thermodynamic at 168 h [2, 15] [µg/mL]	solubility thermodynamic at 168 h [2, 12] [µg/mL]	solubility thermodynamic at 168 h [2, 16] [µg/mL]	solubility thermodynamic at 168 h [2, 17] [µg/mL]	solubility thermodynamic at 168 h [2, 18] [µg/mL]	solubility thermodynamic at 168 h [2, 19] [µg/mL]	increase of solubility by addition of arylcarboxylic acid [3]	Compound	other results
320 (≈ 999 µM)	300 (≈ 937 µM)	780 (≈ 2440 µM)	260 (≈ 812 µM)	350 (≈ 1090 µM)	280 (≈ 874 µM)	630 (≈ 1970 µM)	250 (≈ 780 µM)	540 (≈ 1690 µM)	470 (≈ 1470 µM)	420 (≈ 1310 µM)	250 (≈ 780 µM)	1190 (≈ 3710 µM)	990 (≈ 3090 µM)	830 (≈ 2590 µM)	710 (≈ 2220 µM)	1.5-3 times	CCn1cc(C(=O)O)c(=O)c2cc(F)c(N3CCNCC3)nc21 [enoxacin, 1-ethyl-6-fluoro-1,4-dihydro-4-oxo-7-(1-piperazinyl)-1,8-naphthyridine-3-carboxylic acid]	solubility (physchem; 0.1% phosphate buffer, pH 7): 280 µg/mL (≈ 874 µM); solubility (physchem; 1.6% borate buffer, pH 6): 1700 µg/mL (≈ 5310 µM)
410 (≈ 1280 µM)	430 (≈ 1350 µM)	1810 (≈ 5670 µM)	400 (≈ 1250 µM)	540 (≈ 1690 µM)	420 (≈ 1320 µM)	810 (≈ 2540 µM)	360 (≈ 1130 µM)	920 (≈ 2880 µM)	750 (≈ 2350 µM)	580 (≈ 1820 µM)	360 (≈ 1130 µM)	1590 (≈ 4980 µM)	1600 (≈ 5010 µM)	2060 (≈ 6450 µM)	1060 (≈ 3320 µM)	1.5-3 times	CCn1cc(C(=O)O)c(=O)c2cc(F)c(N3CCNCC3)cc21 [norfloxacin, 1-ethyl-6-fluoro-1,4-dihydro-4-oxo-7-(1-piperazinyl)-3-quinolinecarboxylic acid]	solubility (physchem; 0.1% phosphate buffer, pH 8): 360 µg/mL (≈ 1130 µM); solubility (physchem; 1.6% borate buffer, pH 7): 390 µg/mL (≈ 1220 µM)
–	–	–	–	–	–	–	–	–	–	–	–	–	–	–	–	1.5-3 times	CCn1cc(C(=O)O)c(=O)c2cc(F)c(N3CCNC(C)C3)c(F)c21 (stereo not shown) [lomefloxacin, 1-ethyl-6,8-difluoro-1,4-dihydro-7-(3-methyl-1-piperazinyl)-4-oxo-3-quinolinecarboxylic acid]	solubility thermodynamic at 168 h [4, 13]: 2300 µg/mL (≈ 6550 µM); solubility thermodynamic at 168 h [4, 14]: 2040 µg/mL (≈ 5810 µM); solubility thermodynamic at 168 h [4, 15]: 1800 µg/mL (≈ 5120 µM); solubility thermodynamic at 168 h ([4]; pH 8, diclofenac added, pH 8, 0.1% aqueous sodium dihydrogenphosphate): 1390 µg/mL (≈ 3960 µM); solubility thermodynamic at 168 h [4, 11]: 2140 µg/mL (≈ 6090 µM); solubility thermodynamic at 168 h [4, 12]: 1180 µg/mL (≈ 3360 µM); solubility thermodynamic at 168 h ([4]; pH 9, bromfenac added, pH 9, 0.1% aqueous sodium dihydrogenphosphate): 4700 µg/mL (≈ 13400 µM); solubility thermodynamic at 168 h ([4]; pH 9, diclofenac added, pH 9, 0.1% aqueous sodium dihydrogenphosphate): 3330 µg/mL (≈ 9480 µM); solubility thermodynamic at 168 h ([4]; pH 9, ibuprofen added, pH 9, 0.1% aqueous sodium dihydrogenphosphate): 3500 µg/mL (≈ 9960 µM); solubility thermodynamic at 168 h [4, 19]: 3000 µg/mL (≈ 8540 µM)
